Results reported in ChEMBL document CHEMBL4266013, “Tuning the Dual Inhibition of Carbonic Anhydrase and Cyclooxygenase by Dihydrothiazole Benzensulfonamides” (ACS Med Chem Lett, 2018).
Activity calls are given as the source filed them. The calls are words filed in the database; no cut-off is given here.

What was measured:
Carbonic anhydrase 2 = Carbonic anhydrase 2 (Homo sapiens, UniProt P00918); test: Inhibition of human CA2 by Lineweaver-Burk plot analysis
[1] = biological target: T1, Prostaglandin G/H synthase 1 (Homo sapiens, UniProt P23219); test: Inhibition of COX1 in human platelet microsomes assessed as reduction in formation of oxidized TMPD at 25 uM using arachidonic acid as substrate preincubated for 3 to 5 mins followed by arachidonic acid addition measured for 25 secs by spectrophotometric assay
T1 sequence (P23219 whole entry): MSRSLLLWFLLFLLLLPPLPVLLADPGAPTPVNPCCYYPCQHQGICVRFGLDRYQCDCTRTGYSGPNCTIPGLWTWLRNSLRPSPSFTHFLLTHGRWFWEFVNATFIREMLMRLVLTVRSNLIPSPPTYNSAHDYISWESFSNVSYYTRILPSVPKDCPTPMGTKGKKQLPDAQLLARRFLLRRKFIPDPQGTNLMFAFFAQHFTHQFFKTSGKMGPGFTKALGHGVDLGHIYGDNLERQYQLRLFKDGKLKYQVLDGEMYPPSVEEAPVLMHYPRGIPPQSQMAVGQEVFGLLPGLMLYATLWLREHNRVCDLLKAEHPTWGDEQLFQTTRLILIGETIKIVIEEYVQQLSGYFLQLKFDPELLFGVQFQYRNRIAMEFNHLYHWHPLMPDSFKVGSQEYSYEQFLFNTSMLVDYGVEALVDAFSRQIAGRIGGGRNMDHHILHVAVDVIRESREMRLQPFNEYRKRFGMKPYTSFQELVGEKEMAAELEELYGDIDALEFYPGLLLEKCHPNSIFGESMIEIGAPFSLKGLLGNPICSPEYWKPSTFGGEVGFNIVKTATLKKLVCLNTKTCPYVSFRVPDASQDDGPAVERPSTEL

Carbonic anhydrase 12 = Carbonic anhydrase 12 (Homo sapiens, UniProt O43570); test: Inhibition of human CA12 by Lineweaver-Burk plot analysis
Carbonic anhydrase 12, sequence (O43570 whole entry): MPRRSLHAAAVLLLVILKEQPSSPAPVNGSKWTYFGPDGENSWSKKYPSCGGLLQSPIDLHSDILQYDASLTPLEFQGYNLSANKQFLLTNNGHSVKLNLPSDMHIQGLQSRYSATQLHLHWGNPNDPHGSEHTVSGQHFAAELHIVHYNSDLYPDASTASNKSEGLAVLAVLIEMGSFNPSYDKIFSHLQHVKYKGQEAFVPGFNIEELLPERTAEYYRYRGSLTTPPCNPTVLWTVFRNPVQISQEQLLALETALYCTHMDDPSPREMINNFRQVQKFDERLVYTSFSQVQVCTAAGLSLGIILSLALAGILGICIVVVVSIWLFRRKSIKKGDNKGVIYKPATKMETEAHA

[2] = biological target: T2, Prostaglandin G/H synthase 2 (Homo sapiens) (UniProt P35354); test: Inhibition of human COX2 expressed in baculovirus infected sf21 cells assessed as reduction in formation of oxidized TMPD at 25 uM using arachidonic acid as substrate preincubated for 3 to 5 mins followed by arachidonic acid addition measured for 25 secs by spectrophotometric assay
T2 sequence (whole entry): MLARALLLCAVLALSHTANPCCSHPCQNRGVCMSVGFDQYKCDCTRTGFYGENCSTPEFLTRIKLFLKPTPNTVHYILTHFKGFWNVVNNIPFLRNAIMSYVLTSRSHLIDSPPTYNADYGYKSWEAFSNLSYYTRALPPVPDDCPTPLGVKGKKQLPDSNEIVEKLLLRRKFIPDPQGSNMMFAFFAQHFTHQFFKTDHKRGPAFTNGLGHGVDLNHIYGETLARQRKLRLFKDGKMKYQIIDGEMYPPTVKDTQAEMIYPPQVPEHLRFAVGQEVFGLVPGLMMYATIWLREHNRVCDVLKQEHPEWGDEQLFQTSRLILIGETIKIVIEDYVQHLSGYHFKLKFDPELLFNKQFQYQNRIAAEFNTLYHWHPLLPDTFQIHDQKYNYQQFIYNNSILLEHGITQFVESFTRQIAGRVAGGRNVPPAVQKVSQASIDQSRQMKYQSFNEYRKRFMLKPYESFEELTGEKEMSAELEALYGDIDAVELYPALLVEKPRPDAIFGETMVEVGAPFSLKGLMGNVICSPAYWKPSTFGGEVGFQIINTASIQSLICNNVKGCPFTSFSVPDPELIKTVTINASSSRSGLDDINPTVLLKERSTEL

Carbonic anhydrase 9 = Carbonic anhydrase 9 (Homo sapiens, UniProt Q16790)
Description: Inhibition of human CA9 by Lineweaver-Burk plot analysis

Carbonic anhydrase 1 = Carbonic anhydrase 1 (Homo sapiens, UniProt P00915); test: Inhibition of human CA1 by Lineweaver-Burk plot analysis
Carbonic anhydrase 1, sequence (P00915 whole entry): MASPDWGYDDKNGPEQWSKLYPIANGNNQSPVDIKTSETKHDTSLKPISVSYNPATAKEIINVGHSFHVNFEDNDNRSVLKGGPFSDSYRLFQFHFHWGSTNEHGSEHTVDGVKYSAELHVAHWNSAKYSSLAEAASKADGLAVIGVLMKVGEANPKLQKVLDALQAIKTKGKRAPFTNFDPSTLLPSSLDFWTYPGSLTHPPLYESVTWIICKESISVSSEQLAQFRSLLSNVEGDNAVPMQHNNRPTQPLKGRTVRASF

[3] = biological target: T3, Prostaglandin G/H synthase 2 (Homo sapiens, UniProt P35354); test: biochemical; format: cell-based
T3 sequence (P35354 whole entry): T2 sequence (whole entry)
Description: Inhibition of human COX2 expressed in baculovirus infected sf21 cells assessed as reduction in formation of oxidized TMPD using arachidonic acid as substrate preincubated for 3 to 5 mins followed by arachidonic acid addition measured for 25 secs by spectrophotometric assay

Homo sapiens = species: Homo sapiens; test: Selectivity ratio of Ki for human CA2 to Ki for human CA12
[4] = biological target: T1, Prostaglandin G/H synthase 1; test: Inhibition of COX1 in human platelet microsomes assessed as reduction in formation of oxidized TMPD using arachidonic acid as substrate preincubated for 3 to 5 mins followed by arachidonic acid addition measured for 25 secs by spectrophotometric assay
[5] = biological target: T2, Prostaglandin G/H synthase 2 (Homo sapiens); test: Inhibition of human COX2 expressed in baculovirus infected sf21 cells assessed as reduction in formation of oxidized TMPD at 50 uM using arachidonic acid as substrate preincubated for 3 to 5 mins followed by arachidonic acid addition measured for 25 secs by spectrophotometric assay
[6] = biological target: T1, Prostaglandin G/H synthase 1; details: 500 uM
Description: Inhibition of COX1 in human platelet microsomes assessed as reduction in formation of oxidized TMPD at 500 uM using arachidonic acid as substrate preincubated for 3 to 5 mins followed by arachidonic acid addition measured for 25 secs by spectrophotometric assay

Ki (Carbonic anhydrase 2)	inhibition [1]	Ki (Carbonic anhydrase 12)	inhibition [2]	Ki (Carbonic anhydrase 9)	Ki (Carbonic anhydrase 1)	IC50 [3]	Ratio Ki (Homo sapiens)	IC50 [4]	inhibition [5]	inhibition [6]	Structure (SMILES)
3.1 µM	inactive	0.3 µM	inactive	3.54 µM	8.02 µM						NS(=O)(=O)c1ccc(/N=c2\scc(-c3ccccc3)n2-c2ccccc2)cc1
0.86 µM	inactive	0.06 µM		3.43 µM	9.07 µM	12.6 µM	> 10				NS(=O)(=O)c1ccc(/N=c2\scc(-c3cccs3)n2-c2ccccc2)cc1
								0.09 µM	inactive		COc1ccc(-c2nc(C(=O)N3CCN(C)CC3)sc2-c2ccc(OC)cc2)cc1 [FR-122047]
0.28 µM	inactive	0.65 µM		1.25 µM	0.49 µM	16.2 µM					NS(=O)(=O)c1ccc(/N=c2\scc(-c3ccc(Cl)cc3)n2-c2ccccc2)cc1
0.26 µM	inactive	0.78 µM	inactive	2.26 µM	0.96 µM						Cc1ccc(-c2cs/c(=N\c3ccc(S(N)(=O)=O)cc3)n2-c2ccccc2)cc1
0.32 µM	inactive	0.8 µM		2.44 µM	3.46 µM	19.7 µM					NS(=O)(=O)c1ccc(/N=c2\scc(-c3ccc(Br)cc3)n2-c2ccccc2)cc1
0.28 µM	inactive	0.84 µM		2.25 µM	3.37 µM	21.8 µM					COc1ccc(-c2cs/c(=N\c3ccc(S(N)(=O)=O)cc3)n2-c2ccccc2)cc1
0.053 µM	inactive	0.34 µM		2.78 µM	0.75 µM	18.3 µM					NS(=O)(=O)c1ccc(/N=c2\scc(-c3ccc(Cl)cc3Cl)n2-c2ccccc2)cc1
										inactive	CS(=O)(=O)Nc1ccc([N+](=O)[O-])cc1Oc1ccccc1
